Data on 5 molecules can be found in patent publication EP1980567A1, “New disaccharide-based tensides and emulsifiers” (Beiersdorf AG, priority 2005, dated 2006).

Data set [1] can be described thus: Foaming capacity and foam stability of aqueous solutions in 100 mL measuring cylinders. To be noted: 50°C; immediate volume and 30 min. volume. The data set is classed as physicochemical. How it is done: Messungen werden in 100 mL Meßzylindern durchgeführt. Vor Benutzung wird der Meßzylinder mit konzentrierter Nitriersäure gefüllt und 24 Stunden gelagert, danach mit bidestilliertem Wasser für weitere 24 Stunden. Lösungen werden durch Einwaage des Lipids und Zugabe von bidestilliertem Wasser bis zu einem Gesamtgewicht von 10 g (ca. 10 mL) hergestellt. Lösungen der jeweils niedrigeren Konzentration werden durch Verdünnung der ersten hergestellt. Vor der Messung wird der Meßzylinder bei der gewünschten Temperatur gelagert. Zur Schaumbildung wird der Meßzylinder 20 mal innerhalb von 30 Sekunden umgeschwenkt. Die Messung wird bis zu einer Abweichung von nicht mehr als 5 % wiederholt. Schaumvolumina werden direkt nach dem Schwenken des Zylinders (Schäumungsvermögen) und nach 30 Minuten (Schaumstabilität) bestimmt. '

Data set [2] is described as follows: Gel formation in water: phase transition temperature (Tgel) from gel to isotropic solution. The data set is classed as physicochemical.
Data set [3] in a line: Foam image and size distribution of the gas bubbles. The data set is classed as physicochemical. The conditions noted are these: 1 Gew.% in Wasser. How it is done:
Schaumbild und Größenverteilung der Gasbläschen nach 0 min. (Abb. 2 und 3) und nach 10 min. (Abb. 4 und 5) von Lac-EG-C12 in einer Gesamtkonzentration von 1 Gew.%. in Wasser. Man erkennt, daß der Schaum zu Beginn fast ausschließlich aus Bläschen mit einer Porengröße von unter 10000 µm^2 besteht. Nach 10 min. wird die Größenverteilung etwas flacher, wobei immer noch rund ein Viertel der Bläschen eine Größe von unter 10000 µm^2 aufweist.

Data set [4] in a line: Foam behaviour on hair / in the hand. The conditions noted are these: 1 Gew% in Wasser, with hair strands, rubbed in the hand; single component. From the text: Hier zeigte sich erstaunlicherweise das die erfindungsgemäßen Verbindungen eine vergleichbare Schaumbildung auf der Haut oder dem Haar wie z.B. Laurylethersulfat zeigen, jedoch in deutlich niedrigeren Einsatzkonzentrationen. Aus den Daten für Lac-EG-C12 (Tab. 10) war nicht unbedingt zu erwarten, dass es sich in Wasser beim Verreiben des Tensids in der Hand um einen guten Schaumbildner handelt. Auch in Gegenwart von Haaren wird beim Verreiben des Tensids eine Schaumbildung beobachtet. Dazu wurde 1 Gew% der erfindungsgemäßen Substanz in Wasser in Gegenwart von Haarsträhnen gelöst und in der Hand verrieben. Der Schaum ist wesentlich feinporiger als vergleichbare Schäume von Laurylethersulfat. […] Lac-Laureth-3.

A short description of data set [5]: Gel formation in water: phase transition temperature (Tgel) from gel to isotropic solution. The conditions noted are these: for Übergangstemperatur: 0.1 Gew.%, gel up to this temperature, liquid above. The data set is classed as physicochemical. How it is done:
Tabelle 1: Phasenumwandlungstemperaturen (Tgel) vom Gel zur isotropen Lösung für unterschiedliche Konzentrationen an Lipid (Abweichung ± 0.5 °C). Die Verbindung bildet ein stabiles Gel und oberhalb von Tgel eine klare Lösung. Tgel ist definiert als die Temperatur bei der das Gel sich beginnt aufzulösen. Die Temperaturspanne des Übergangs beträgt im Normalfall 2 bis 5 °C.

Data set [6] can be described thus: Gel formation in dimethyl sulfoxide (DMSO) / water mixtures. To be noted: 0.1 Gew.%. On the set-up: key: G=Gel; Gp = Teilweise geliert; I = Isotrope Lösung; S = Fest beim Abkühlen (bedingt durch gefrorenes Lösungsmittel). The format is physicochemical. The method, then: Tabelle 2: Phasenumwandlungstemperaturen (Tgel) vom Gel zur isotropen Lösung für unterschiedliche Lösungsmittelzusammensetzung (Dimethylsulfoxid, DMSO und Wasser, H2O) bei gleichbleibender Lipidkonzentration (0.1 Gew.%) (Abweichung ± 0.5 °C). Die Verbindung formt klare Gele oder geliert nur teilweise, oberhalb der Übergangstemperatur bildet sie eine klare Lösung. Tgel ist definiert als die Temperatur bei der das Gel sich beginnt aufzulösen. Die Temperaturspanne des Übergangs beträgt im Normalfall 2 bis 5 °C.

`CCCCCCCCCCCCOCCO[C@@H]1O[C@H](CO)[C@@H](O[C@H]2O[C@H](CO)[C@@H](O)[C@H](O)[C@H]2O)[C@H](O)[C@H]1O` [Mal-EG-C12, (2'-Dodecyloxyethyl) 4-O-(α-D-glucopyranosyl)-β-D-glucopyranosid]: the “Schaumbildner (comparison with SLES)” value in data set [1] is listed as “wesentlich bessere Schaumbildner als Natriumlauryethersulfat (SLES)”.
Consider `CCCCCCCCCCCCOCCO[C@@H]1O[C@H](CO)[C@@H](O[C@@H]2O[C@H](CO)[C@H](O)[C@H](O)[C@H]2O)[C@H](O)[C@H]1O` [Lac-EG-C12, (2'-Dodecyloxyethyl) 4-O-(β-D-galactopyranosyl)-β-D-glucopyranosid], for which the Gelbildung entry in data set [2] (11 Gew.% Laurylethersulfat to 4 Gew.% of the β-anomer) is recorded as “Gelbildung aber wieder einsetzt”; in data set [2] (mixture of 13 Gew% Laurylethersulfat with 2 Gew.% of the β-anomer) it was “kein Gel mehr bildet”. Moreover, the “Anteil an α-Anomer, ab dem die Gelbildung durch das β-Anomer aufgehoben wird” value in data set [2] (mixture of α- and β-anomer) is greater than 80 Gew.%. Further, in data set [3] (0 min., almost all bubbles), the “Porengröße der Bläschen” value was less than 10000 µm^2. Moreover, the “Anteil der Bläschen mit einer Größe von unter 10000 µm^2” value in data set [3] (nach 10 min.) is reported as “ein Viertel”. Further, in data set [4], the “Schaumbildung auf Haar / in der Hand” value is reported as “bester Schaumbildner”. The “Schaumbildner (comparison with SLES)” value in data set [1] was “wesentlich bessere Schaumbildner als Natriumlauryethersulfat (SLES)”. Moreover, the Tgel turned out to be 10 °C in data set [5] (0.03 Gew.% (0.60 mM) in water); 21 °C in data set [5] (0.04 Gew.% (0.72 mM) in water); 30 °C in data set [5] (0.05 Gew.% (0.90 mM) in water); 35 °C in data set [5] (0.06 Gew.% (1.03 mM) in water); 38 °C in data set [5] (0.07 Gew.% (1.20 mM) in water); 40 °C in data set [5] (0.08 Gew.% (1.44 mM) in water). The Tgel in data set [5] (0.1 Gew.% (1.80 mM) in water) amounted to 43 °C; in data set [5] (0.13 Gew.% (2.41 mM) in water), 45 °C; in data set [5] (0.2 Gew.% (3.61 mM) in water), 46 °C; in data set [5] (0.5 Gew.% (9.02 mM) in water), 48 °C; in data set [5] (1 Gew.% (18.04 mM) in water) it was 50 °C; in data set [5] (5 Gew.% (90.20 mM) in water), 51 °C. This molecule had a Tgel in data set [5] (10 Gew.% (180.40 mM) in water) of 51 °C. In addition, in data set [5], the Übergangstemperatur came out at 43 °C. Further, the Gelbildungsverhalten entry was “I” in data set [6] (H2O /DMSO 1:9, 4 °C); “I” in data set [6] (H2O /DMSO 1:9, 20 °C); “S” in data set [6] (H2O /DMSO 1:9, -27 °C); “I” in data set [6] (H2O /DMSO 2:8, 4 °C); “I” in data set [6] (H2O /DMSO 2:8, 20 °C); “S” in data set [6] (H2O /DMSO 2:8, -27 °C). The Gelbildungsverhalten entry in data set [6] (H2O /DMSO 3:7, 4 °C) is given as “Gp”; in data set [6] (H2O /DMSO 3:7, 20 °C), “I”; in data set [6] (H2O /DMSO 3:7, -27 °C), “S”; in data set [6] (H2O /DMSO 4:6, 4 °C), “G”; in data set [6] (H2O /DMSO 4:6, 20 °C), “G”; in data set [6] (H2O /DMSO 4:6, 39 °C), “Gp”. In addition, the Gelbildungsverhalten entry was “I” in data set [6] (H2O /DMSO 4:6, 50 °C); “S” in data set [6] (H2O /DMSO 4:6, -27 °C); “G” in data set [6] (H2O /DMSO 5:5, 4 °C); “G” in data set [6] (H2O /DMSO 5:5, 20 °C); “G” in data set [6] (H2O /DMSO 5:5, 39 °C); “I” in data set [6] (H2O /DMSO 5:5, 50 °C). The Gelbildungsverhalten entry in data set [6] (H2O /DMSO 5:5, -27 °C) was “G”; in data set [6] (H2O /DMSO 6:4, 4 °C) it was “G”; in data set [6] (H2O /DMSO 6:4, 20 °C), “G”; in data set [6] (H2O /DMSO 6:4, 39 °C), “G”; in data set [6] (H2O /DMSO 6:4, 50 °C), “I”; in data set [6] (H2O /DMSO 6:4, -27 °C) it was “S”. The Gelbildungsverhalten entry is recorded as “G” in data set [6] (H2O /DMSO 7:3, 4 °C); “G” in data set [6] (H2O /DMSO 7:3, 20 °C); “G” in data set [6] (H2O /DMSO 7:3, 39 °C); “I” in data set [6] (H2O /DMSO 7:3, 50 °C); “S” in data set [6] (H2O /DMSO 7:3, -27 °C); “G” in data set [6] (H2O /DMSO 8:2, 4 °C). Also, the Gelbildungsverhalten result was “G” in data set [6] (H2O /DMSO 8:2, 20 °C); “G” in data set [6] (H2O /DMSO 8:2, 39 °C); “I” in data set [6] (H2O /DMSO 8:2, 50 °C); “S” in data set [6] (H2O /DMSO 8:2, -27 °C); “G” in data set [6] (H2O /DMSO 9:1, 4 °C); “G” in data set [6] (H2O /DMSO 9:1, 20 °C). For the same molecule, the Gelbildungsverhalten entry was “G” in data set [6] (H2O /DMSO 9:1, 39 °C); “I” in data set [6] (H2O /DMSO 9:1, 50 °C); “S” in data set [6] (H2O /DMSO 9:1, -27 °C).
In the case of `CCCCCCCCCCCCOC(C)CO[C@@H]1O[C@H](CO)[C@@H](O[C@@H]2O[C@H](CO)[C@H](O)[C@H](O)[C@H]2O)[C@H](O)[C@H]1O` (stereo partly drawn) [Lac-PG-C12, (2'-Dodecyloxypropyl) 4-0-(β-D-galactopyranosyl)-β-D-glucopyranosid], the Übergangstemperatur in data set [5] stood at 41 °C.
As for `CCCCCCCCCCCCOCCO[C@@H]1O[C@H](CO[C@H]2O[C@H](CO)[C@H](O)[C@H](O)[C@H]2O)[C@@H](O)[C@H](O)[C@H]1O` [Mel-EG-C12, (2'-Dodecyloxyethyl) 6-O-(α-D-galactopyranosyl)-β-D-glucopyranosid], the “Schaumbildner (comparison with SLES)” value in data set [1] is recorded as “wesentlich bessere Schaumbildner als Natriumlauryethersulfat (SLES)”.
As for `CCCCCCCCCCCCOCCO[C@H]1O[C@H](CO)[C@@H](O[C@@H]2O[C@H](CO)[C@H](O)[C@H](O)[C@H]2O)[C@H](O)[C@H]1O` [Lac-α-EG-C12, (2'-Dodecyloxyethyl) 4-O-(β-D-galactopyranosyl)-α-D-glucopyranosid], the Gelbildung result in data set [5] (in water) is listed as “kein Gel bildet”.
